Key:
[1] = system: ROS level in PQ-treated Neuro-2a cells; assay: ROS level analysis in PQ-treated Neuro-2a cells (H2DCFDA); assay type: cell-based, mouse; conditions: tested at 1 and 10 μM, PQ 500 µM 1 h
Description: The cells (1 × 10^4 cells/well of a 96-well plate) were incubated with compound solutions (1 and 10 µM) during 1 h. Then, PQ was added to cell suspension to a resulting concentration of 500 µM for incubation during 1 h. Cells incubated without PQ and compounds and with PQ alone were used as positive and negative controls, respectively. The 20 µL of 2,7-dichlorodihydrofluorescein diacetate solution (H2DCFDA, Molecular Probes, Eugene, OR, USA) was added to each well (10 µM, final concentration) and the plate was incubated for an additional 10 min at 37 °C. The intensity of dichlorofluorescin fluorescence was measured with a PHERAstar FS plate reader (BMG Labtech, Ortenberg, Germany) at λex = 485 nm and λem = 518 nm. The data were processed by MARS Data Analysis v. 3.01R2 (BMG Labtech, Ortenberg, Germany). The results were presented as percent of positive control data.

[2] = system: PQ-treated Neuro-2a cells; assay: Propidium iodide straining of PQ-treated Neuro-2a cells (membrane permeability); assay type: cell-based, mouse; conditions: PQ-treated cells, 24 h
Description: The cells (1 × 10^4 cells/well) were seeded in black 96-well plates before testing. After incubation of the cells with compounds and PQ during 24 h, PI solution (10 μg/mL) was added to each well and the plate was incubated in the dark at 37 °C for 10 min. Cells were washed with phosphate buffer saline (PBS) (BioloT, St.Peterburg, Russia) and fluorescence was measured with a Fluoroskan Ascent plate reader (Thermo Labsystems, Helsinki, Finland) at […]. All manipulations with fluorescent probes were carried out in a darkened room. The results were presented as percent of positive control data.

[3] = system: Hsp70 level in Neuro-2a cells; assay: Hsp70 level analysis by Western blot in Neuro-2a cells; assay type: cell-based, mouse; conditions: compound 10 µM 1 h, then PQ 500 µM 24 h
Description: The Hsp70 expression was detected by Western blot analysis. Cell suspensions (1.6 × 10^5 cells/well of a 6-well plate) were seeded and treated with studied compounds at a concentration of 10 µM for 1 h. After that, PQ (500 µM) was added and cells were incubated during 24 h. Cells incubated without PQ and compounds and with PQ alone were used as positive and negative controls, respectively. Cells were washed by cold PBS (BioloT, Russia) twice and lysed by radioimmunoprecipitation assay (RIPA) buffer (BioloT, St. Peterburg, Russia). The amount of proteins was measured by the Bradford method and equal samples (25 µg) were prepared using sample buffer. Proteins were separated with sodium dodecyl sulphate (SDS) electrophoresis in 10% polyacrylamide gel. The electrophoretically separated proteins were transferred onto the polyvinylidene difluoride (PVDF) membrane Whatman (Sigma-Aldrich, St. Louis, MO, USA) using a semi-dry transfer apparatus (Helicon, Moscow, Russia). […] The peroxidase reaction was visualized by an enhanced chemiluminescence (ECL) kit according to the instructions of the manufacturer (Sigma-Aldrich, St. Louis, MO, USA) using the VersaDoc Imaging System (Bio-Rad, Hercules, CA, USA).

Neuro-2a cells = assay: Cytotoxicity toward Neuro-2a cells (MTT assay); assay type: cell-based, mouse; conditions: Neuro-2a cells, 100 μM, MTT assay
Description: (§1) The cells of mouse neuroblastoma cell line Neuro-2a (ATCC® CCL-131™; American Type Culture Collection, Manassas, VA, USA) were cultured in Dulbecco’s modified Eagle’s medium (DMEM) containing 10% fetal bovine serum (Biolot, St. Petersburg, Russia) and 1% penicillin/streptomycin (Biolot, St. Petersburg, Russia) at 37 °C in a humidified atmosphere with 5% (v/v) CO2. Initially, cells were incubated in cultural flasks until sub-confluent (~80%). For testing, Neuro-2a cells were seeded in 96- or 6-well plates and experiments were started after 24 h.
(§2) The cells (1 × 10^4 cells/well of a 96-well plate) were incubated with different concentrations of studied compounds during 24 h. After that, cell viability was determined by the MTT (3-(4,5-dimethylthiazol-2-yl)-2,5-diphenyltetrazolium bromide) method according to the manufacturer’s instructions (Sigma-Aldrich, St. Louis, MO, USA). Absorbance of the converted formazan was measured using a Multiskan FC microplate photometer (Thermo Scientific, Waltham, MA, USA) at λ = 570 nm. The results were presented as percent of control data, and concentration of cell viability inhibition on 50% (IC50) was calculated.

[4] = Cytotoxicity toward Neuro-2a cells (MTT assay); assay type: cell-based, mouse; conditions: mouse, Neuro-2a neuroblastoma cells, 24 h
Description: as §1, §2

[5] = system: PQ-treated Neuro-2a cells; assay: Neurite outgrowth estimation in PQ-treated Neuro-2a cells; assay type: cell-based, mouse
Description: Neurite outgrowth was studied as described by Li et al.. Neuro-2a cells were seeded in 6-well plates (1.6 × 10^5 cells/well) in DMEM medium containing 10% fetal bovine serum (Biolot, St. Peterburg, Russia) and 1% penicillin/streptomycin (Invitrogen, Carlsbad, CA, USA). The next day, this growth media was changed with serum-free DMEM media containing 1% penicillin/streptomycin, and cells were treated with studied compounds at a concentration of 10 µM for 1 h. After that, PQ (500 µM) was added and cells were incubated during 24 h. Cells incubated without PQ and compounds and with PQ alone were used as positive and negative controls, respectively.
For each well, approximately 10 images were acquired randomly by scanning the wells from left to right and top to bottom using the AxioImager A1 microscope (CarlZeiss, Oberkochen, Germany). A total of ten random fields (near 350 cells in each) for each experimental group were scored for neurite outgrowth. The number of neurite-bearing cells and lengths of the individual neurites for each cell were measured using the AxioVision 4.7.1 software (CarlZeiss, Oberkochen, Germany). Length was defined as the straight-line distance from the tip of the neurite to the junction between the cell body and neurite base. In the case of branched neurites, the length of the longest branch was measured from the tip of the neurite to the cell body. In each experimental group, the average length of neurites was calculated, as well as the average number of neurites per one cell.

[6] = DPPH radical scavenging assay (cell-free); conditions: 30 min, MeOH
Description: The 2,2-diphenyl-1-picryl-hydrazyl-hydrate (DPPH) radical scavenging activity was tested as described previously. The compounds were dissolved in MeOH, and the solutions (120 µL) were dispensed into wells of a 96-well microplate. The DPPH (Sigma-Aldrich, Steinheim, Germany) was dissolved in MeOH at a concentration of 7.5 × 10^−3 M and the solution (30 µL) was added to each well. The concentrations of tested compounds in the mixtures were 10 and 100 µM. Ascorbic acid was used as a positive control. The mixtures were shaken and left for 30 min. The absorbance of the resulting solutions was measured at λ = 520 nm with a MultiscanFC plate reader (Thermo Scientific, Waltham, MA, USA). The concentration scavenging 50% of the DPPH radical (EC50) was calculated for each compound.

[7] = system: mitochondrial membrane potential in PQ-treated Neuro-2a cells; assay: Mitochondrial membrane potential detection (TMRM) in PQ-treated Neuro-2a cells; assay type: cell-based, mouse; conditions: compound 10 μM, PQ 500 µM 1 h
Description: The cells (1 × 10^4 cells/well of a 96-well plate) were incubated with compound solutions (1 and 10 µM) during 1 h. Then, PQ was added to cell suspension to a resulting concentration of 500 µM for incubation during 1 h. Cells incubated without PQ and compounds and with PQ alone were used as positive and negative controls, respectively. The tetramethylrhodamine methyl (TMRM) (Sigma-Aldrich, St. Louis, MO, USA) solution at 500 nM was added in each well and cells were incubated for 30 min at 37 °C. The intensity of fluorescence was measured with a PHERAstar FS plate reader (BMG Labtech, Ortenberg, Germany) at λex = 540 nm and λem = 590 nm. The data were processed by MARS Data Analysis v. 3.01R2 (BMG Labtech, Ortenberg, Germany). The results were presented as percent of positive control data.

[8] = system: histamine release induced by anti-IgE; conditions: cited from earlier work
[9] = cells incubated with compound 10 µM and PQ 500 µM
[10] = compound 10 µM 1 h, then PQ 500 µM 24 h

SMILES: CC(=O)O[C@H]1CC[C@]2(C)C3=C(CC[C@H]2C1(C)C)[C@]1(C(=O)O)CC[C@H]([C@H](C)CCC=C(C)C)[C@@]1(C)CC3 [Compound 5, acetylpenasterol]
- concentrations at which ROS content in PQ-treated cells was reduced [1]: effective at concentrations of 1 and 10 μM
- decrease of fluorescence of PI-straining cells ([2]; compound 1 μM pre-incubation): 20%
- decrease of fluorescence of PI-straining cells ([2]; compound 10 μM pre-incubation): 24%
- effect on Hsp70 level in PQ-treated cells [3]: raised it to the initial level
- death of cells (Neuro-2a cells): 45.6%
- activity at 24 h, 10 µM ([4]; Neuro-2a cell viability, 10 μM, read-out: Cytotoxicity (MTT Assay) % of Control at 10 μM): 97.9 ± 3.3%
- IC50 at 24 h ([4]; Neuro-2a cells): > 100 µM
- proportion of neurites with a length of 0–4.99 µm in the total number [5, 9]: 6.4%
- proportion of neurites with a length of 10.00–14.99 µm in the total number [5, 9]: 20.7%
- increase in the average number of neurites per cell [5, 10]: 20%
- increase of neurites-bearing cell amount compared to PQ-treated control [5, 10]: 144%
- EC50 [6]: > 100 µM
- increase of intensity of TMRM fluorescence (PQ-induced mitochondrial dysfunction diminished) [7]: 35%
- inhibition of histamine release induced by anti-IgE [8]: inhibitors of histamine release

Reference: publication PMC7698842, “Lanostane Triterpenoid Metabolites from a Penares sp. Marine Sponge Protect Neuro-2a Cells against Paraquat Neurotoxicity” (Molecules, 2020)
